Assay results taken from US8008456B2, “Compositions containing, methods involving, and uses of non-natural amino acids and polypeptides” (Ambrx, Inc., priority 2004, dated 2011).

Assay: pH stability tests
Format: physicochemical
Experimental: This example provides the results of pH stability tests that were conducted on certain illustrative non-natural amino acids as an aid for predicting their properties for incorporation into non-natural amino acid polypeptides.

Measured: pH stability

COCCOCNCCO/N=C(\C)CC(=O)c1ccccc1 [drawing 139]
8.0%: pH 8.0, 1 hour
4.0%: pH 4.0, 1 hour
5.0%: pH 5.0, 1 hour
7.4%: pH 7.4, 1 hour
6.5%: pH 6.5, 1 hour
<1%: pH 4.0, 1 day | pH 4.0, 2 days | pH 4.0, 3 days | pH 4.0, 4 days | pH 4.0, 5 days | pH 4.0, 6 days | pH 4.0, 7 days | pH 4.0, 10 days | pH 5.0, 1 day | pH 5.0, 2 days | pH 5.0, 3 days | pH 5.0, 4 days | pH 5.0, 5 days | pH 5.0, 6 days | pH 5.0, 7 days | pH 5.0, 10 days | pH 6.5, 1 day | pH 6.5, 2 days | pH 6.5, 3 days | pH 6.5, 4 days | pH 6.5, 5 days | pH 6.5, 6 days | pH 6.5, 7 days | pH 6.5, 10 days | pH 7.4, 1 day | pH 7.4, 2 days | pH 7.4, 3 days | pH 7.4, 4 days | pH 7.4, 5 days | pH 7.4, 6 days | pH 7.4, 7 days | pH 7.4, 10 days | pH 8.0, 1 day | pH 8.0, 2 days | pH 8.0, 3 days | pH 8.0, 4 days | pH 8.0, 5 days | pH 8.0, 6 days | pH 8.0, 7 days | pH 8.0, 10 days

COCCOC(=O)NCCO/N=C(\C)CNC(=O)c1ccccc1
3%: pH 5.0, 1 day | pH 5.0, 2 days
<1%: pH 5.0, 1 hour | pH 6.5, 1 hour | pH 6.5, 1 day | pH 6.5, 2 days | pH 7.4, 1 hour | pH 7.4, 1 day | pH 7.4, 2 days | pH 7.4, 3 days | pH 7.4, 4 days | pH 7.4, 5 days | pH 7.4, 6 days | pH 7.4, 7 days | pH 7.4, 10 days
8%: pH 4.0, 2 days | pH 5.0, 7 days | pH 5.0, 10 days
10%: pH 4.0, 3 days
11%: pH 4.0, 4 days | pH 4.0, 5 days | pH 4.0, 6 days | pH 4.0, 7 days | pH 4.0, 10 days
2%: pH 6.5, 3 days | pH 6.5, 4 days | pH 6.5, 5 days | pH 6.5, 6 days | pH 6.5, 7 days | pH 6.5, 10 days
24%: pH 8.0, 1 day
5%: pH 4.0, 1 hour | pH 5.0, 3 days
33%: pH 8.0, 7 days
7%: pH 4.0, 1 day | pH 5.0, 4 days | pH 5.0, 5 days | pH 5.0, 6 days
30%: pH 8.0, 2 days | pH 8.0, 3 days | pH 8.0, 4 days | pH 8.0, 5 days | pH 8.0, 6 days
9%: pH 8.0, 1 hour
34%: pH 8.0, 10 days

COCCOC(=O)NCCO/N=C1\C(=O)Nc2ccccc21
<1%: pH 4.0, 1 hour | pH 4.0, 1 day | pH 4.0, 2 days | pH 4.0, 3 days | pH 4.0, 4 days | pH 4.0, 5 days | pH 4.0, 6 days | pH 4.0, 7 days | pH 4.0, 10 days | pH 5.0, 1 hour | pH 5.0, 1 day | pH 5.0, 2 days | pH 5.0, 3 days | pH 5.0, 4 days | pH 5.0, 5 days | pH 5.0, 6 days | pH 5.0, 7 days | pH 5.0, 10 days | pH 6.5, 1 hour | pH 6.5, 1 day | pH 6.5, 2 days | pH 6.5, 3 days | pH 6.5, 4 days | pH 6.5, 5 days | pH 6.5, 6 days | pH 6.5, 7 days | pH 6.5, 10 days | pH 7.4, 1 hour | pH 7.4, 1 day | pH 7.4, 2 days | pH 7.4, 3 days | pH 7.4, 4 days | pH 7.4, 5 days | pH 7.4, 6 days | pH 7.4, 7 days | pH 7.4, 10 days | pH 8.0, 1 hour | pH 8.0, 1 day | pH 8.0, 2 days | pH 8.0, 3 days | pH 8.0, 4 days | pH 8.0, 5 days | pH 8.0, 6 days | pH 8.0, 7 days | pH 8.0, 10 days

COCCOCNCCO/N=C(\C)CC(=O)c1ccccc1 [drawing 135]
7%: pH 7.4, 7 days
4%: pH 7.4, 6 days
2%: pH 4.0, 6 days | pH 4.0, 7 days
11%: pH 7.4, 10 days
3%: pH 4.0, 10 days | pH 7.4, 5 days
<1%: pH 4.0, 1 hour | pH 4.0, 1 day | pH 4.0, 2 days | pH 4.0, 3 days | pH 4.0, 4 days | pH 4.0, 5 days | pH 5.0, 1 hour | pH 5.0, 1 day | pH 5.0, 2 days | pH 5.0, 3 days | pH 5.0, 4 days | pH 5.0, 5 days | pH 5.0, 6 days | pH 5.0, 7 days | pH 5.0, 10 days | pH 6.5, 1 hour | pH 6.5, 1 day | pH 6.5, 2 days | pH 6.5, 3 days | pH 6.5, 4 days | pH 6.5, 5 days | pH 6.5, 6 days | pH 6.5, 7 days | pH 6.5, 10 days | pH 7.4, 1 hour | pH 7.4, 1 day | pH 7.4, 2 days | pH 7.4, 3 days | pH 7.4, 4 days | pH 8.0, 1 hour | pH 8.0, 1 day | pH 8.0, 2 days | pH 8.0, 3 days | pH 8.0, 4 days | pH 8.0, 5 days | pH 8.0, 6 days | pH 8.0, 7 days | pH 8.0, 10 days
